According to patent US9481709B2, “Boropeptide inhibitors of enteropeptidase and their uses in treatment of obesity, overweight and/or diseases associated with an abnormal fat metabolism” (OBE THERAPY BIOTECHNOLOGY, priority 2007, dated 2016):

What was measured:
[1] = molecular target: T1, Kallikrein from human plasma (Homo sapiens, UniProt P03952); assay: Kallikrein assay; format: biochemical; conditions: in vitro
T1 construct: Kallikrein from human plasma; purchased SIGMA K2638; host or cells: human plasma
T1 sequence (P03952 391-638 limits assumed): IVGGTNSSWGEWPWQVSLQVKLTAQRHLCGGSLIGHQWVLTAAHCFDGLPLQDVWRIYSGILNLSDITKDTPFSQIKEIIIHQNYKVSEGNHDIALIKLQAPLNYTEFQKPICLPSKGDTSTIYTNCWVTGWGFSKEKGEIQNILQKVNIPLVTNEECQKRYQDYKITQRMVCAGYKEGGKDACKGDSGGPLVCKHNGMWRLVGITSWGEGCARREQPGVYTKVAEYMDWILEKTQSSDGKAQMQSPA
T1 sequence (P03952 20-390 partner limits assumed): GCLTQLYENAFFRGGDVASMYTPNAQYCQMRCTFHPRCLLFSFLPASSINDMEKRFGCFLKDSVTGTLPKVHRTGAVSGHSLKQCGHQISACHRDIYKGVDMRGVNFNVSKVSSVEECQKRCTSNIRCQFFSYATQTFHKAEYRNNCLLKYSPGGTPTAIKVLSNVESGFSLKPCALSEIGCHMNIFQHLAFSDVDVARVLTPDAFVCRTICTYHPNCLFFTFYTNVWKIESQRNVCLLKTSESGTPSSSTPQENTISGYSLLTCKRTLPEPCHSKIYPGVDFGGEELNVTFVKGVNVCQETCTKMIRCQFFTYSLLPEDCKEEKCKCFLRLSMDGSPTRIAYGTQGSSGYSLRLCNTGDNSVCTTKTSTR
Procedure: (§1) 2.2. Thrombin, Trypsin, Kallikrein, Plasmin, Chymotrypsin and Elastase Assay
(§2) Table IV below lists the final concentrations of the tested enzymes and the corresponding substrates, in the determination of the IC50 without inhibitor (positive control) and in inhibition protocols:
(§3) Measurement without Inhibitor (Positive Control)
(§4) In 17 μl of TN, 1 μl of enzyme and 2 μl of substrate was mixed, just before reading; The Absorbance was measured at 405 nm on EnVision (Perkin Elmer).
(§5) Inhibition in 384 Well Plate Small Volume ([…])
(§6) In 15 μl of TN, 1 μl of enzyme and 2 μl of Inhibitor (compound of the invention) at different concentrations were mixed and incubated at RT for 30 minutes; 2 μl of substrate was added, just before reading; The Absorbance was measured at 405 nm on EnVision (Perkin Elmer).

[2] = molecular target: T2, Plasmin from human plasma (Homo sapiens, UniProt P00747); assay: Plasmin assay; format: biochemical; conditions: in vitro
T2 construct: Plasmin from human plasma; purchased SIGMA P1867; host or cells: human plasma
T2 sequence (P00747 581-810 limits assumed): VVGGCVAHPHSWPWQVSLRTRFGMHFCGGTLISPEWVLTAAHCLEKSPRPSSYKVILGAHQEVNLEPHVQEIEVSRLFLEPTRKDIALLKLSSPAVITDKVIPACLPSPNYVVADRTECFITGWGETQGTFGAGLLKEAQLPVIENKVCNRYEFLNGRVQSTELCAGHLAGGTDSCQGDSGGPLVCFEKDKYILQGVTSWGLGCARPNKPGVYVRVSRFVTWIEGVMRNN
T2 sequence (P00747 98-580 partner limits assumed): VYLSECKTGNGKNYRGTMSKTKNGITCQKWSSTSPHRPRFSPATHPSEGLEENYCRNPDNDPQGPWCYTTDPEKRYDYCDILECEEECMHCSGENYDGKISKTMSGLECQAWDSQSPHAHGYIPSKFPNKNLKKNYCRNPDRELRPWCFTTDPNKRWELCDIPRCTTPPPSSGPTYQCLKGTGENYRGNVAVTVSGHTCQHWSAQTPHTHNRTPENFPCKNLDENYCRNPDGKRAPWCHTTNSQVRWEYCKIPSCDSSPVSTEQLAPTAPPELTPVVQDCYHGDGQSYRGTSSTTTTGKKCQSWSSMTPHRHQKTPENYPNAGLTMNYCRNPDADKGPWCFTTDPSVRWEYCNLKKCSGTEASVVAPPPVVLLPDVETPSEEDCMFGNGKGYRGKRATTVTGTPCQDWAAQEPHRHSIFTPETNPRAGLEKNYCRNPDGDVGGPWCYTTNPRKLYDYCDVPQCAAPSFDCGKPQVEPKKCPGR
Procedure: as §1, §2, §3, §4, §5, §6

Enteropeptidase [3] = molecular target: T3, Enteropeptidase (Homo sapiens, UniProt P98073); assay: Enteropeptidase
Text: (§7) Table printed on a drawing sheet, Fig. 5
Head of the field: Enteropeptidase
(§8) The patent's description of the figure: FIG. 5 is a Table showing the IC 50 (in nM) of enteropeptidase, various serine proteases and other enzyme families, in the presence of compounds OBE 1999, OBE 2000, OBE 2001 or OBE 2002.
(§9) First copying reader's note: Each column is one compound; each row gives its IC50 against the named enzyme.
Where the first naming reader finds the target: head: Enteropeptidase
Target sequence in this assay (P98073 2-1019): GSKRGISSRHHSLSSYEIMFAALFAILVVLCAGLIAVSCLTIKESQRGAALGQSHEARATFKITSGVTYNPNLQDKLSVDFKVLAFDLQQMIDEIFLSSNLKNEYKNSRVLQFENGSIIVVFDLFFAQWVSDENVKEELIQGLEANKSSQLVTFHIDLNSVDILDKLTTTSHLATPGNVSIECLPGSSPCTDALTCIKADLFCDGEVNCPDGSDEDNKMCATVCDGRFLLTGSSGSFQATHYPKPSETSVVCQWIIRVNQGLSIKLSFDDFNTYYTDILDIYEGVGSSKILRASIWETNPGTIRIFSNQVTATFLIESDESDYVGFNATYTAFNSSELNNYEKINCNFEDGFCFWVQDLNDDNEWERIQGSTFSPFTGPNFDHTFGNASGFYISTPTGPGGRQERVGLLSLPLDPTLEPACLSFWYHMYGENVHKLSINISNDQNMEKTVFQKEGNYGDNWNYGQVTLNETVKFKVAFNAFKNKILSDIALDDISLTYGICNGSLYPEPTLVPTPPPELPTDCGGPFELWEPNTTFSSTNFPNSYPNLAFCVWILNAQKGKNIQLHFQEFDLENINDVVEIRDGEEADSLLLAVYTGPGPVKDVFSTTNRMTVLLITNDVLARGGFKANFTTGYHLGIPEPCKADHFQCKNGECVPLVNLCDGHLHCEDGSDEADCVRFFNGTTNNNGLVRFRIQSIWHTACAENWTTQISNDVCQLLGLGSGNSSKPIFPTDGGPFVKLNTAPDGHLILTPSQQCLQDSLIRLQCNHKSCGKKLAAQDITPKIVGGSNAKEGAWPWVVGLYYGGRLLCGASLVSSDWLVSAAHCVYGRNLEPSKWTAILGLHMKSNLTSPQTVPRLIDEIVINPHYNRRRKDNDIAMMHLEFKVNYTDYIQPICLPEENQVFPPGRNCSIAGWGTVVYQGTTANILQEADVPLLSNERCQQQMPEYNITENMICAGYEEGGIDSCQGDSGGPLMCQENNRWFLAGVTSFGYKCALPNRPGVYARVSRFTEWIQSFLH

Trypsin = Trypsin (Homo sapiens, UniProt P07477); assay: Trypsin
Text: as §7
Head of the field: Trypsin
as §8, §9
Where the first naming reader finds the target: head: Trypsin

Plasmin = Plasmin (Homo sapiens, UniProt P00747); assay: Plasmin
Plasmin, sequence (P00747 97-810): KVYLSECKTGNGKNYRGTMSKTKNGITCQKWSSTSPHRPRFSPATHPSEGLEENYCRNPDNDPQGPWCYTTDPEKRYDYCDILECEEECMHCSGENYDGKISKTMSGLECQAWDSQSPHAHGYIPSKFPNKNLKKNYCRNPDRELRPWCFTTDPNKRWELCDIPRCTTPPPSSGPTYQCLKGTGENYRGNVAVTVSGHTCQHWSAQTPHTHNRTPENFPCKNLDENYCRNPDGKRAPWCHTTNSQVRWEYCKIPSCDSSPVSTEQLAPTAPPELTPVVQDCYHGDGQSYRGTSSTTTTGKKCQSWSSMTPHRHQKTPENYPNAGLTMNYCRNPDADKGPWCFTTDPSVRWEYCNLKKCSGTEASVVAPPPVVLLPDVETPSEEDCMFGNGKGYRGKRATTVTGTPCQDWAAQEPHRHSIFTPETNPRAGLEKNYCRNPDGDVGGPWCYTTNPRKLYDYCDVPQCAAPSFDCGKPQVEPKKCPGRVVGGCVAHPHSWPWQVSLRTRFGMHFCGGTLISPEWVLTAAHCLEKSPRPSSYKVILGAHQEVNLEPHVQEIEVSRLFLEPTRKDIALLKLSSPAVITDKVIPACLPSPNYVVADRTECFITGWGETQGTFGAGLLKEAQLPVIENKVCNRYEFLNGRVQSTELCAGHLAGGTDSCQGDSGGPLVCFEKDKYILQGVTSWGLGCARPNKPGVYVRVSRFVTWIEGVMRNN
Text: as §7
Head of the field: Plasmin
as §8, §9
Where the first naming reader finds the target: head: Plasmin

Kallikrein = Kallikrein (Homo sapiens, UniProt P03952); assay: Kallikrein
Kallikrein, sequence (P03952 20-638): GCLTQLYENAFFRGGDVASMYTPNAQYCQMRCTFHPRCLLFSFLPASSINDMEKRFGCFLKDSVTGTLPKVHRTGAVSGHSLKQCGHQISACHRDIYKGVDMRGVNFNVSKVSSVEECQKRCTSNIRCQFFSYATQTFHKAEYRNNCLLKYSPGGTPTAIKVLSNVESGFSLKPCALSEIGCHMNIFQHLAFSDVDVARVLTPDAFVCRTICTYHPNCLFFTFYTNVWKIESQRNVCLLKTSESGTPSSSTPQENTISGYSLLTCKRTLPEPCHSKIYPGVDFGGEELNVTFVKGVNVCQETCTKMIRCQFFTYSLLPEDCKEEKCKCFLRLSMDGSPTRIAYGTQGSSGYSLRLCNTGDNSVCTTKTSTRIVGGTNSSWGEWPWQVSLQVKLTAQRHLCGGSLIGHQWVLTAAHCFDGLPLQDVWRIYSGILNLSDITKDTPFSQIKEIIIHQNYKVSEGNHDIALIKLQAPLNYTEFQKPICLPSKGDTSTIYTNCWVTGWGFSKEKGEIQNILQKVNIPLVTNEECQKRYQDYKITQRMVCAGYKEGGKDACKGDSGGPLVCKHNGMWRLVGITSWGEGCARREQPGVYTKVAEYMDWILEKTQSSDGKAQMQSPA
Text: as §7
Head of the field: Kallikrein
as §8, §9
Where the first naming reader finds the target: head: Kallikrein

Enteropeptidase [4] = molecular target: T3, Enteropeptidase; assay: Enteropeptidase assay (Np Tosyl Gly Pro Arg pNa substrate, absorbance 405 nm); format: biochemical; parameters: purchased RD system 1585SE; conditions: in vitro, 30 min preincubation at RT
Procedure: 2.1. Enteropeptidase Assay
Activation of the Enteropeptidase
A mix of enteropeptidase at 58.8 nM (final) and thermolysine at 1.58 ng/I (final) in TCN buffer was prepared; the mix was incubated at 37° C. during 30 minutes for activation. Phosphoramidon (10 μM final) was added to stop the activation by thermolysine.
Measurement of Enteropeptidase Activity without Inhibitor (Positive Control)
In 17 μl of TCN, 1 μl of active enzyme (2.9 nm final) and 2 μl Np Tosyl Gly Pro Arg pNa (1 mM final) were mixed, just before reading. The Absorbance was measured at 405 nm on EnVision (Perkin Elmer).
as §5
Target sequence in this assay (P98073 785-1019 limits assumed): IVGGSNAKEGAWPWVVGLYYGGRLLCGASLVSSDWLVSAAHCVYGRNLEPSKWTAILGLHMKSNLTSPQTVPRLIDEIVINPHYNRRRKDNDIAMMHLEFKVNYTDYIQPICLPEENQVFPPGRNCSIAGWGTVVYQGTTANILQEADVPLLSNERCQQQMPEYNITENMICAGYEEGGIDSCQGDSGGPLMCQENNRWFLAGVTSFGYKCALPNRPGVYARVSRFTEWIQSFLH
Target sequence in this assay (P98073 2-784 partner limits assumed): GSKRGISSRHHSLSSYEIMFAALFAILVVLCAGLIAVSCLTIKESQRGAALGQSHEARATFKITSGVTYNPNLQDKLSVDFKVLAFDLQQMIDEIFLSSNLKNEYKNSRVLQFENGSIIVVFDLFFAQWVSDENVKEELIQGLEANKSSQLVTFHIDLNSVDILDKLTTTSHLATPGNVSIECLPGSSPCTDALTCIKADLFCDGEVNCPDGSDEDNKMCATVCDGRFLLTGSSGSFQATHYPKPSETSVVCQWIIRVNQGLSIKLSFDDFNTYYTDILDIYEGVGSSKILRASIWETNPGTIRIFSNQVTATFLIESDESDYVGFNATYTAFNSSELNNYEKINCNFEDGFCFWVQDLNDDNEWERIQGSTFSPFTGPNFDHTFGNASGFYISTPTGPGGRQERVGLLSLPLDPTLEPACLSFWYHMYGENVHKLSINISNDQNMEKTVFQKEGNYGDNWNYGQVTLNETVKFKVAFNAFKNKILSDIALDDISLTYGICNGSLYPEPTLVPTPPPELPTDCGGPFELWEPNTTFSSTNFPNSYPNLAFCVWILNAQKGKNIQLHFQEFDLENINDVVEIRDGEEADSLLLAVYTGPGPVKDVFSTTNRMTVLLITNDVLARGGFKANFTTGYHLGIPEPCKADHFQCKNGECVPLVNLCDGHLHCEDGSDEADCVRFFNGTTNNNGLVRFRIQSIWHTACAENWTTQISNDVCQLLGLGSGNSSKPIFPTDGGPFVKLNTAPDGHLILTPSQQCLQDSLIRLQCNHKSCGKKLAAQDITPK
In 15 μl of TCN, 1 μl of active enzyme and 2 μl of Inhibitor (compound of the invention) at different concentrations were mixed, and incubated at RT (room temperature) for 30 minutes; 2 μl Np Tosyl Gly Pro Arg pNa (1 mM final) was added just before reading. The Absorbance was measured at 405 nm on EnVision (Perkin Elmer).

Thrombin = Thrombin (Homo sapiens, UniProt P00734); assay: Thrombin
Text: as §7
Head of the field: Thrombin
as §8, §9
Where the first naming reader finds the target: head: Thrombin

[5] = molecular target: T4, Thrombin from human plasma (Homo sapiens, UniProt P00734); assay: Thrombin assay; format: biochemical; conditions: in vitro
T4 construct: Thrombin from human plasma; purchased SIGMA T1063; host or cells: human plasma
Procedure: as §1, §2, §3, §4, §5, §6

[6] = molecular target: T5, Trypsin from human pancreas (Homo sapiens, UniProt P07477); assay: Trypsin assay; format: biochemical; conditions: in vitro; range printed jointly for trypsin, kallikrein and plasmin
T5 construct: Trypsin from human pancreas; purchased SIGMA T6424; host or cells: human pancreas
Procedure: as §1, §2, §3, §4, §5, §6

IC50 enteropeptidase (Enteropeptidase [4]) | IC50 [1] [µM] | IC50 (Thrombin) [µM] | IC50 [2] [µM] | IC50 thrombin [5] | IC50 (Enteropeptidase [4]) [µM] | IC50 [6] [µM] | Structure (SMILES) | IC50 kallikrein [1] | IC50 plasmin [2] | IC50 (Enteropeptidase [3]) [µM] | IC50 (Trypsin) [µM] | IC50 (Plasmin) [µM] | IC50 (Kallikrein) [µM]
– | – | – | – | – | – | – | CC(=O)N[C@@H](CCC(=O)O)C(=O)NCC(=O)N[C@@H](CCCN=C(N)N)B(O)O [OBE2002, Acetyl-Glu-Gly-BoroArg] | low IC50 value | low IC50 value | 0.0336 | 0.0105 | 3.8 | 0.0814
low value of IC50 | 0.26 | 3.22 | 7.1 | high value of IC50 | – | – | CC1(C)[C@@H]2CC3OB([C@H](CCCNC(=N)N)NC(=O)CNC(=O)[C@@H](N)CCC(=O)O)O[C@@]3(C)[C@H]1C2 (stereo partly shown) [OBE2000] | – | – | 0.068 | – | – | –
– | 0.0075 to 0.0298 | 6.4 | 0.0075 to 0.0298 | – | 0.033 | 0.0075 to 0.0298 | C[C@H](N)C(=O)N[C@@H](Cc1ccccc1)C(=O)N[C@@H](CCCNC(=N)N)B1OC2C[C@@H]3C[C@@H](C3(C)C)[C@]2(C)O1 (stereo partly shown) [OBE1999] | – | – | – | – | 0.0298 | 0.0075
